# Experiment: AMES test (mutagenicity)
# Assay type: cell-based
smiles,measurement,value
CCCCOc1ccc(C(F)(F)F)cc1N [5-Trifluormethyl-2-n-butoxy-anilin],AMES-Test,nicht-mutagen

# Reference: patent EP0300390A1, “Trifluoromethyl-alkoxy-anilin, process for their preparation and their use in the ice-colour technique” (HOECHST AKTIENGESELLSCHAFT, priority 1987, dated 1989)
